According to US20240009157A1 (PriZm, LLC, priority 2022, published 2024):

What was measured:
[1] = tested on: MCT8 mutant (mct8−/−) zebrafish; settings: cited from earlier work
[2] = ambient temperature and light; cited from earlier work
child having a G-tube = assay: Effect of DITPA on removal of G-tube; format: in vivo, human; settings: one child who started DITPA while having a G-tube
[3] = tested on: MCT8-deficient (knockout) mice (Mct8KO); settings: cited from earlier work
[4] = tested on: pediatric patient suffering from Allan-Herndon-Dudley Syndrome; assay: Dosing regimen for a pediatric subject, T3 serum levels; format: in vivo, human
Experimental: Following the first 2 weeks, the daily dosage was increased to 2 mg/kg/day for 2 additional weeks. […] Following the first 2 weeks, the daily dosage was increased to 2 mg/kg/day for 2 additional weeks. […] Following the first 2 weeks, the daily dosage was increased to 2 mg/kg/day for 2 additional weeks.

pediatric subjects = settings: human, in vivo; cited from earlier work

Structure (SMILES): O=C(O)CCc1cc(I)c(Oc2ccc(O)cc2)c(I)c1 [DITPA, 3,5-diiodothyropropionic acid]
- hypomyelination in the CNS [1]: SRW101 and other TH analogs partially rescued the hypomyelination
- stability [2]: stable at ambient temperature and light
- G-tube (child having a G-tube): g-tube was removed
- body weight (child having a G-tube): gained weight
- MCT8 dependence of entry into the brain [3]: independent for entry into the brain
- TH deficit [3]: corrects the TH deficit
- measurements and other parameters of TH action [3]: showed that SRW101 normalized all measurements and other
- thyrotoxic effect in the liver [3]: Mct8KO mice without causing thyrotoxic effect in the liver (Di
- thyrotoxic state in the liver (analysis of TH target genes) [3]: amelioration of the thyrotoxic state in the liver (ameliorating
- T3 serum levels above normal ([4]; 1 mg/kg/day for 2 weeks, then 2 mg/kg/day for 2 additional weeks, above normal): more than 15%
- T3 serum levels below normal ([4]; 1 mg/kg/day for 2 weeks, then 2 mg/kg/day for 2 additional weeks, below normal): more than 15%
- T3 serum levels upon reassessment ([4]; after 1.0 mg/kg/day for 28 days): normal
- T3 serum levels upon reassessment ([4]; after 1.5 mg/kg/day for 28 days): normal
- T3 serum levels upon reassessment, below normal ([4]; after 1.5 mg/kg/day for 28 days, below normal): more than 15%
- T3 serum levels upon reassessment ([4]; after 2.5 mg/kg/day for 28 days): normal

Structure (SMILES): O=C(O)Cc1cc(I)c(Oc2ccc(O)c(I)c2)c(I)c1 [TRIAC, triiodothyroacetic acid]
- effects in pediatric subjects (pediatric subjects): subjects with positive effects.
